Five compounds from patent US20060178359A1, “Tricyclic compound, process for producing the same, and use” (priority 2003, published 2006) can be followed below.

The target of the test is T1, human CCR5 (Homo sapiens, UniProt P51681).
T1 construct: expressed in transfected cells
T1 sequence (P51681 whole entry): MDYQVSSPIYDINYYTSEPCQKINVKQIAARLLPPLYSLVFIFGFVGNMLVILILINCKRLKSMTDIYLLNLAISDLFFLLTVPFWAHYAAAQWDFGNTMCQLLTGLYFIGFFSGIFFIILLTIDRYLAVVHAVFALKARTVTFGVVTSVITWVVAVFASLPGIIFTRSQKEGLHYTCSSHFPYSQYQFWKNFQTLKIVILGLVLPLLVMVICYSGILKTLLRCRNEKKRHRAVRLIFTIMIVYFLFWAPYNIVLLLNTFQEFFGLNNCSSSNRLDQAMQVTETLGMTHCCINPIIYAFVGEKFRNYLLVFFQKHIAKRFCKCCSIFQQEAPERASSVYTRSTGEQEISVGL
Briefly: inhibition of [125I]-RANTES binding to CCR5/CHO cells. Particulars: test compound 1 μM, 100 pM [125I]-RANTES, room temperature, 40 minutes. How it is done:
(1) Cloning of Human CCR5 Chemokine Receptor
Cloning of a CCR5 gene was conducted from human spleen cDNA by a PCR method. Using 0.5 ng of spleen cDNA (Toyobo Co., Ltd., QUICK-Clone cDNA) as a template, the PCR reaction was carried out in a DNA Thermal Cycler 480 (Perkin Elmer) using a TaKaRa EX Taq (Takara Shuzo Co., Ltd.) (reaction conditions: 30 cycles of treatments at 95° C. for 1 minute, at 60° C. for 1 minute, and at 75° C. for 5 minutes) by adding 25 pmol of primers, SEQ ID NO. 1 (sequence length: 34; sequence type: nucleic acid; number of chains: a single chain; topology: linear; sequence kind: other nucleic acid, synthetic DNA) described in Experimental Example (1) of WO 99/32100, and SEQ ID NO. 2 (sequence length: 34; sequence type: nucleic acid; number of chains: a single chain; topology: linear; sequence kind: other nucleic acid, synthetic DNA) described in Experimental Example (1) of WO 99/32100, respectively, which were prepared by referring to the base sequence of the CCR5 gene described by Samson et al. (Biochemistry 35 (11), 3362-3367 (1996)). The PCR products were subjected to agarose gel electrophoresis to collect DNA fragments of about 1.0 kb. Then, the CCR5 gene was cloned using an Original TA Cloning Kit (Funakoshi Co., Ltd.).
(2) Preparation of Plasmid for Expression of Human CCR5
The plasmids obtained above were digested with restriction enzymes XbaI (Takara Shuzo Co., Ltd.) and BamHI (Takara Shuzo Co., Ltd.), and subjected to agarose gel electrophoresis to collect DNA fragments of about 1.0 kb. The DNA fragments and a plasmid pcDNA3.1 (Funakoshi Co., Ltd.) for expression in animal cells, which was previously digested with XbaI and BamHI, were mixed and ligated by DNA Ligation Kit Ver. 2 (Takara Shuzo Co., Ltd.). Transformation of E. coli JM109 competent cells (Takara Shuzo Co., Ltd.) gave plasmid pCKR5.
(3) Introduction of the Plasmid for Expression of Human CCR5 into CHO-K1 Cells and Expression Thereof
CHO-K1 cells grown in a 750 ml tissue culture flask (Becton Dickinson) using Ham's F12 medium (Nihon Pharmaceutical Co., Ltd.) containing 10% fetal bovine serum (Lifetech Oriental) were collected from the flask by using 0.5 g/L trypsin-0.2 g/L EDTA (Lifetech Oriental). The cells were then washed with PBS (Lifetech Oriental), centrifuged (1000 rpm, 5 minutes), and suspended in PBS. Next, DNA was introduced into the cells using Gene Pulser (Bio-Rad Laboratories Inc.) under the following conditions. Namely, 8×10^6 cells and 10 μg of plasmid pCKR5 for expression of human CCR5 were added into a cuvette of a 0.4 cm-gap, and electroporation was carried out at an electric voltage of 0.25 kV and a capacitance of 960 μF. Subsequently, the cells were transferred into Ham's F12 medium containing 10% fetal bovine serum, and incubated for 24 hours. The cells were again collected, centrifuged, and then suspended in Ham's F12 medium containing 10% fetal bovine serum and Geneticin (Lifetech Oriental) at a concentration of 500 μg/ml. The suspension of cells was diluted to a concentration of 10^4 cells/ml, and inoculated on a 96-well plate (Becton Dickinson) to give Geneticin-resistant strains.
Subsequently, the Geneticin-resistant strains were cultured in the 96-well plate (Becton Dickinson), and then CCR5-expressing cells were selected from the resistant strains. […] The cells to which the ligand bound specifically, i.e., CCR5/CHO strains, were selected by measurement of radioactivity by γ-counter. […]
With `CCCCOCCOc1ccc(-c2cnc3c(c2)C=C(C(=O)Nc2ccc([S@@+]([O-])Cc4cncn4CCC)cc2)CC[C@H]2CCCN32)cc1` [Compound 17, (8aS,Ss)-3-[4-(2-butoxyethoxy)phenyl]-N-[4-[[(1-propyl-1H-imidazol-5-yl)methyl]sulfinyl]phenyl]-7,8,8a,9,10,11-hexahydropyrido[3,2-g]pyrrolo[1,2-a]azocine-6-carboxamide], the “Binding Inhibitory Ratio (%)” value worked out at 98%.
The result for `CCCCOCCOc1ccc(-c2cnc3c(c2)C=C(C(=O)Nc2ccc([S@@+]([O-])Cc4cncn4CCC)cc2)CC[C@@H]2CCCN32)cc1` [Compound 16, (8aR,Ss)-3-[4-(2-butoxyethoxy)phenyl]-N-[4-[[(1-propyl-1H-imidazol-5-yl)methyl]sulfinyl]phenyl]-7,8,8a,9,10,11-hexahydropyrido[3,2-g]pyrrolo[1,2-a]azocine-6-carboxamide] reads 94%; that for `CCCCOCCOc1ccc(-c2ccc3c(c2)C=C(C(=O)Nc2ccc([S+]([O-])Cc4cncn4CCC)cc2)CCC2CCCCN32)cc1` (centres unmarked) [Compound 8, (Ss)-10-[4-(2-butoxyethoxy)phenyl]-N-[[4-[(1-propyl-1H-imidazol-5-yl)methyl]sulfinyl]phenyl]-2,3,4,4a,5,6-hexahydropyrido[1,2-a][1]benzazocine-6-carboxamide], 97%; that for `CCCCOCCOc1ccc(-c2ccc3c(c2)C=C(C(=O)Nc2ccc([S+]([O-])Cc4cncn4CCC)cc2)CCC2CCCN32)cc1` (centres unmarked) [Compound 5, (Ss)-9-[4-(2butoxyethoxy)phenyl]-N-[4-[[(1-propyl-1H-imidazol-5-yl)methyl]sulfinyl]phenyl]-1,2,3,3a,4,5-hexahydropyrrolo[1,2-a][1]benzazocine-6-carboxamide], 96%.
With `CCCCOCCOc1ccc(-c2cnc3c(c2)C=C(C(=O)Nc2ccc([S@@+]([O-])Cc4cncn4CCC)cc2)CCC2CCCN32)cc1` (some centres unmarked) [Compound 15, (Ss)-3-[4-(2-butoxyethoxy)phenyl]-N-[4-[[(1-propyl-1H-imidazol-5-yl)methyl]sulfinyl]phenyl]-7,8,8a,9,10,11-hexahydropyrido[3,2-g]pyrrolo[1,2-a]azocine-6-carboxamide], the “Binding Inhibitory Ratio (%)” value was 100%.
